The record followed here is patent US6080871A, “Sulfonamides and sulfamides as H3 receptor antagonists” (James Black Foundation Limited, priority 1996, dated 2000).

One assay has as its target T1, H3 receptor (Cavia porcellus, UniProt Q9JI35).
T1 construct: the longitudinal muscle layer and adhering myenteric plexus was teased away; from tissue; host or cells: ileal longitudinal muscle with adhering myenteric plexus of male Dunkin-Hartley guinea pigs
The assay can be described thus: H3 receptor bioassay (functional assay), guinea pig ileal longitudinal muscle myenteric plexus. The class given is cell-based. The note with it: printed in the pKB column; electrically stimulated guinea pig ileum; read-out: p[A]50 (functional assay) (converted). In outline:
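Longitudinal muscle-myenteric plexus strips from male Dunkin-Hartley guinea pig ileum were held in Krebs-Henseleit at 37 °C, field-stimulated (0.1 Hz, 0.5 ms, supramaximal voltage) and recorded isometrically. After compound incubation, cumulative R-(α)-methylhistamine curves were taken as % inhibition of twitch height. Antagonist affinity came from curve rightward shift by Schild analysis.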

In a further assay the target is T2, Histamine H3 (Cavia porcellus, UniProt Q9JI35).
T2 construct: ileum longitudinal muscle myenteric plexus membranes; from tissue; host or cells: ileum longitudinal muscle myenteric plexus membranes of male Dunkin Hartley guinea pigs
T2 sequence (Q9JI35 whole entry): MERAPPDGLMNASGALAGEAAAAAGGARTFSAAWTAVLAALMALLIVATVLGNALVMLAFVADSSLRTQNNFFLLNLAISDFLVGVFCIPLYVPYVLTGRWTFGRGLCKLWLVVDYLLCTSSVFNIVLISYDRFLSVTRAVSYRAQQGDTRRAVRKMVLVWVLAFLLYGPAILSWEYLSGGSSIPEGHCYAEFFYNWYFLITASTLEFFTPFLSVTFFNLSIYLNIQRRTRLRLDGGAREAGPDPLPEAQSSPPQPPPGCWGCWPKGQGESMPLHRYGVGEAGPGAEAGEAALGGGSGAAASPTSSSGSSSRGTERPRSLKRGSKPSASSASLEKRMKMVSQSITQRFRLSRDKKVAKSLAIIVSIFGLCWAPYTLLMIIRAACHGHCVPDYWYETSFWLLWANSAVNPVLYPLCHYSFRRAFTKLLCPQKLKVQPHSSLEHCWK
As to the kind of experiment: Histamine H3 radioligand binding assay, [3H]-R-α-methylhistamine, guinea pig ileum longitudinal muscle myenteric plexus membranes. The note with it: 3 nM [3H]-R-α-methylhistamine, 165 min, 21±3° C., Cheng Prusoff; variance ±0.12 log units.

T1 sequence (Q9JI35 whole entry): as above

For the compound `C[C@H](Cc1c[nH]cn1)NS(=O)(=O)c1ccc2ccccc2c1` [Example 71, (R)-(+)-N-[2-(4(5)-Imidazoyl)-1-methyl-ethyl]-2-naphthalenesulfonamide], the EC50 on H3 receptor is 776 nM. Further, the “pK1 (binding assay)” value at Histamine H3 is listed as 8.44.
